Experimental data taken from patent publication US12691116B2, “SETBP1 and XPO1 inhibitors for the treatment of sickle cell disease and β-thalassemia” (The Henry M. Jackson Foundation for the Advancement of …, priority 2019, dated 2026).

Experiments:
MEL cells [1] = test: Real-time RT-PCR of Hbb-bh1, Hbb-y and Hbb-b1 mRNA in MEL cells after 48 hours of treatment; assay type: cell-based, mouse; details: for effect on Hbb-y mRNA level (in words) / effect on Hbb-bh1 mRNA level (in words): 48 hours of treatment at indicated concentration; for increase in Hbb-bh1 (embryonic hemoglobin) mRNA level / increase in Hbb-y (fetal hemoglobin) mRNA level: 0.1 μM, 48 hours, relative to vehicle, normalized to Rpl4
Experimental: Real-time RT-PCR analysis of Hbb-bh1, Hbb-y, and Hbb-b1 mRNA levels in MEL cells after 48 hours of treatment with compound 1AA at indicated concentration or with control DMSO. Relative expression levels were calculated by normalizing to Rpl4 mRNA levels in the same sample and also to cells […] with DMSO. […]
Relative expression levels were calculated by normalizing to Rpl4 mRNA levels in the same sample and also to cells treated with DMSO.
(§1) For studies using MEL cells, the cells were treated with selected inhibitors or vehicle in a culture medium (RPM 11640 medium with 10% fetal bovine serum) for 48 hours and were subsequently harvested for analysis of relative mRNA levels of Hbb-bh1, Hbb-y, and Hbb-b1 using real-time RT-PCR. For studies using primary human CD34+ hematopoietic stem and progenitor cells, the cells were treated with inhibitors or vehicle following or concurrent with induction of erythroid differentiation using an established two-phase culture protocol (Xu et al., Genes & Development 24(8): 783-798 (2010)). Relative mRNA levels of β-like globin genes in human cells after treatment were also analyzed using real-time RT-PCR.

MEL cells [2] = test: Real-time RT-PCR of hemoglobin mRNA in MEL cells 48 hours after removal of compound (24 hours treatment); assay type: cell-based, mouse; details: treated 24 hours, examined 48 hours after removal
Experimental: Real-time RT-PCR analysis of Hbb-bh1, Hbb-y, and Hbb-b1 mRNA levels in MEL cells 48 hours after removal of Compound (1AA) or KPT-185 from culture. The cells were first treated with Compound (1AA) or KPT-185 for 24 hours. Relative expression levels were calculated by normalizing to Rpl4 mRNA levels in the same sample and also to cells treated with DMSO.
A further experiment examined whether continuous treatment of Compound (1AA) and KPT-185 as exemplary SETBP1 and XPO1 inhibitors, respectively, was required for activation of Hbb-bh1 and Hbb-y expression. MEL cells were treated with Compound (1AA) and KPT-185 for 24 hours and the Hbb-bh1 and Hbb-y mRNA levels were then examined at 48 hours after their removal.

human erythroid cells = test: Erythroid differentiation of human mobilized CD34+ cells, real-time RT-PCR of globin mRNA; assay type: cell-based; details: human erythroid cells from CD34+ cells, treatment from day 5 of expansion, harvested day 10 of differentiation
Source text: Human CD34^+ cells mobilized by granulocyte-colony stimulating factor (G-CSF) were induced to undergo erythroid differentiation in culture. Treatment with Compound 1AA and 1BB at indicated concentrations or vehicles (DMSO or water) were started at day 5 of expansion condition. Erythroid cells were harvested at day 10 of differentiation condition for real-time RT-PCR analysis of human embryonic […] (FIG. 8A), fetal γ (FIG. 8B), and adult β (FIG. 8C) hemoglobin mRNA levels. Relative expression levels were calculated by normalizing to RPL4 mRNA levels in the same sample and also to cells treated with DMSO. (FIG. 8D) Representative bar graphs showing mRNA levels of human embryonic and fetal hemoglobin (γ+ε) as a percentage of total β-like globin (β+γ+ε) mRNA levels after treatment with Compound 1AA and 1BB versus DMSO. Note that a level of 20% or above for embryonic and fetal hemoglobin is considered curative for sickle cell disease. **, P<0.01; ***, P<0.001; ****P<0.0001 (two-tailed Student's t test).
as §1
Primary human mobilized CD34^+ cells were initially cultured in expansion medium containing StemSpan SFEM Medium (StemCell Technologies Inc.) with 1×CC100 cytokine mix (StemCell Technologies Inc.) and 2% Penicillin-Streptomycin (Life Technologies Inc.). Cells were maintained in this expansion medium at a density of 0.1-1×10^6 cells/mL for a total of six days with media changes every two days. On day 6, cells were transferred into differentiation medium containing StemSpan SFEM Medium with 2% Penicillin-Streptomycin, 20 ng/ml SCF (Biolegend), 1 U/ml EPO (Amgen), 5 ng/ml IL-3 (Biolegend), 2 μM dexamethasone (Sigma), and 1 μM β-estradiol (Sigma). Cells were maintained at a density of 0.1-1×10^6 cells/mL in differentiation medium for 10 days with media changes every two days. Drug treatments were started at day 5 of expansion condition and maintained thereafter. Fresh drugs were added at each medium change.

SETBP1 = SETBP1 (Homo sapiens, UniProt Q9Y6X0); details: cited from earlier work
[3] = test system: SETBP1 interaction with XPO1; details: cited from earlier work

Sequence of SETBP1 (Q9Y6X0 whole entry): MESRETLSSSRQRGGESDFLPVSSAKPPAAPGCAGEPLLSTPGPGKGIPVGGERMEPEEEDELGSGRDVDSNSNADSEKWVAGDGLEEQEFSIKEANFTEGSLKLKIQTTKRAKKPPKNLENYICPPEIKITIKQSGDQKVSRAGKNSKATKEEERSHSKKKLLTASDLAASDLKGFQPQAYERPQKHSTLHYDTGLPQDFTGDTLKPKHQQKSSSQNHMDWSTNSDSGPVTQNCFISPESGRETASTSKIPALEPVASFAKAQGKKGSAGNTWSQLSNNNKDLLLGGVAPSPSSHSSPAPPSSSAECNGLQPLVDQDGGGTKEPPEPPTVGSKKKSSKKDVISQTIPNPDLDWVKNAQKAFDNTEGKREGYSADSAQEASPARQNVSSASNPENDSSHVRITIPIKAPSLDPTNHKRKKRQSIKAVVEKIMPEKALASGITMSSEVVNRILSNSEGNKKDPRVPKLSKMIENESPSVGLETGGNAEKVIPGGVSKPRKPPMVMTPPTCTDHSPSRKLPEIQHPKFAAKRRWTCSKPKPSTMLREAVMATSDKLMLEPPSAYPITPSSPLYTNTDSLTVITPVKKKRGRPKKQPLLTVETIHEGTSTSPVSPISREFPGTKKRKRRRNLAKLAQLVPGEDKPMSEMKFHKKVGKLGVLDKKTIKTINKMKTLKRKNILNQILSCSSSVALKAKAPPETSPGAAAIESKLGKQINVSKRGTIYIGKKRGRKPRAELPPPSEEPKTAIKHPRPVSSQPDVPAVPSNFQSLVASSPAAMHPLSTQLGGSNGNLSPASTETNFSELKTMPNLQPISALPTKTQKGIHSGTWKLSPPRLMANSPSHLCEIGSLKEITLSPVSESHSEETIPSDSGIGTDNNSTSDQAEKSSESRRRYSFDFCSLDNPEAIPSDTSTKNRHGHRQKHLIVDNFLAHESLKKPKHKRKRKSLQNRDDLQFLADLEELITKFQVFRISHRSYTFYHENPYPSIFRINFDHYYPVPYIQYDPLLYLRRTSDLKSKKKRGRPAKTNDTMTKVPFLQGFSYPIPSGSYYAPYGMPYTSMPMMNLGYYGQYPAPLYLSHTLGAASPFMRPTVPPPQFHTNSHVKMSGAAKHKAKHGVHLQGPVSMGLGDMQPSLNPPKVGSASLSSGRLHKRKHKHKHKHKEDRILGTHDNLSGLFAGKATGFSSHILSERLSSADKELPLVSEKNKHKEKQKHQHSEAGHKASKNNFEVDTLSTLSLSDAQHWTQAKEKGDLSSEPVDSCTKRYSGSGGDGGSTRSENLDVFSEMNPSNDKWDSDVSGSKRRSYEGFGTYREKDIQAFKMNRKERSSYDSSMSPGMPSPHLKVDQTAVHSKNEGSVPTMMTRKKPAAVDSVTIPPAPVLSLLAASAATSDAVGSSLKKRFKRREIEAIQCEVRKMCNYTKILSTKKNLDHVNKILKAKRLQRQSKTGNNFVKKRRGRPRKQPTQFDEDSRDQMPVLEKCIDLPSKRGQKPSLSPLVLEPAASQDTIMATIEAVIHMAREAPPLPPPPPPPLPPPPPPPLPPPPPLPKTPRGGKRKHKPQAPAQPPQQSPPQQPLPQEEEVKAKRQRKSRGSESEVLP

O=C(/C=C\n1cnc(-c2cc(C(F)(F)F)cc(C(F)(F)F)c2)n1)NNc1cnccn1 [KPT-330, reference compound]
effect on Hbb-y mRNA level (in words) (MEL cells [1]): significantly increase

COc1cc(-c2ncn(/C=C\C(=O)OC(C)C)n2)cc(C(F)(F)F)c1 [KPT-185, reference compound]
increase in Hbb-bh1 (embryonic hemoglobin) mRNA level (MEL cells [1]): over 60 fold | increase in Hbb-y (fetal hemoglobin) mRNA level (MEL cells [1]): over 14 fold | Hbb-bh1 mRNA level compared to cells treated with hydroxyurea (MEL cells [1]; 48 hours of treatment): ~30 fold | Hbb-bh1 mRNA level after removal of compound (MEL cells [2]): Significantly elevated levels | Hbb-y mRNA level after removal of compound (MEL cells [2]): Significantly elevated levels

NC(=O)/C(=C/n1cnc(-c2cc(C(F)(F)F)cc(C(F)(F)F)c2)n1)c1cncnc1 [KPT-8602, reference compound]
effect on Hbb-bh1 mRNA level (in words) (MEL cells [1]): significantly increase | effect on Hbb-y mRNA level (in words) (MEL cells [1]): significantly increase

Cc1c2cc[n+](CCN3CCCCC3)cc2c(C)c2c1[nH]c1ccc(O)cc12.[Br-] [Compound (1AA)]
human embryonic hemoglobin mRNA level (human erythroid cells): significantly increased | human fetal γ hemoglobin mRNA level (human erythroid cells): significantly increased | increase in Hbb-bh1 (embryonic hemoglobin) mRNA level (MEL cells [1]): > 8 fold | increase in Hbb-y (fetal hemoglobin) mRNA level (MEL cells [1]): > 8 fold | effect on adult hemoglobin Hbb-b1 mRNA level (MEL cells [1]; 48 hours of treatment): only minor changes | inhibition of SETBP1 (transcriptional activity) (SETBP1): inhibitor | blocking of SETBP1 interaction with cofactor XPO1 [3]: blocking | Hbb-bh1 mRNA level after removal of compound (MEL cells [2]): Significantly elevated levels | Hbb-y mRNA level after removal of compound (MEL cells [2]): Significantly elevated levels

CCN(CC)CC[n+]1ccc2c(C)c3[nH]c4ccc(O)cc4c3c(C)c2c1.[Cl-] [Compound (1BB)]
human embryonic hemoglobin mRNA level (human erythroid cells): significantly increased | human fetal γ hemoglobin mRNA level (human erythroid cells): significantly increased | effect on adult hemoglobin Hbb-b1 mRNA level (MEL cells [1]; 48 hours of treatment): minor effects | effect on Hbb-bh1 mRNA level (in words) (MEL cells [1]): significantly increase | effect on Hbb-y mRNA level (in words) (MEL cells [1]): significantly increase | inhibition of SETBP1 (transcriptional activity) (SETBP1): inhibitor
